The subject of one test is normal mouse splenocytes. The experiment in a line: Cytokine release from murine splenocytes. The format is cell-based, C57BL6 mice. The conditions noted are these: 24 hours culture with test compound. The method, then: The ability of compounds to stimulate cytokine release from splenocytes can be assessed in a mouse model. Spleen cells harvested from C57BL6 mice are cultured for 24 hours in RPMI 1640 cell culture medium containing 5% FBS, 1 mM sodium pyruvate, 2 mM L-glutamine, 100 U/ml penicillin/streptomycin and 50 μM beta-mercaptoethanol, various concentrations of test compound for 20-24 hours, after which the cell culture supernatant is tested for the presence of cytokines.
Spleen cells harvested from mice were cultured for 24 house with test compound and the supernatant was tested for release of cytokines.

In the next test the test system is THP-1 cells. The test is described as follows: TNF-alpha promoter secreted alkaline phosphatase (TNF-PLAP) reporter in THP-1 cells. The conditions noted are these: for stimulation of alkaline phosphatase expression from TNF promoter reporter (TNF-PLAP): absence and presence of 10% serum, FIG. 3. The format is cell-based, human. The method, then:
Similar results can be obtained when compounds of the invention are tested in a cell-culture model. In this assay, compounds of the invention are tested for their ability to stimulate secretion of alkaline phosphatase from THP-1 cells that have been transfected with the gene for secreted alkaline phosphatase under the control of the TNF-alpha promoter, as described in detail in Goto et al., Molecular Pharmacology 49; 860-873 (1996). In this assay, however, the effects of removing serum^1—a condition that may more-likely mimic a subcutaneous environment—can be evaluated. As shown in FIG. 2 and described in Table 1, results from these assays indicate that compounds of the invention stimulate induction of genes under the control of the TNF-alpha promoter when added to cells in the absence as well as the presence of serum. ^1 This is important to determine if serum components such as lipopolysaccharide binding protein are necessary for drug activity.

The next test relates to Human Whole Blood. The test is described as follows: Cytokine release in human whole blood (ELISA). The class given is cell-based. The conditions noted are these: for EC50: whole blood, vs. % of LPS at 10 ng/ml, read-out: WB ED50 vs LPS@ 10 ng/ml; for TNF-alpha release in whole blood at 10 μM compound (% of 10 ng/ml LPS response): compounds tested at 10 μM, compared to 10 ng/ml LPS, 3-hour incubation. The method, then: The most readily available human system to test compound activity on monocytes/macrophages is in whole blood. Various concentrations of compounds of the invention were added as 10× stocks in 50 μl of Ca^++, Mg^++-free Hank's balanced salt solution (HBSS) followed by 50 μl of HBSS into 400 μl of heparinized whole blood obtained from normal volunteers (18-51 years old; 110-230 lb.) into the wells of plastic assay plates, for a total volume of 500 μl/well (final concentration of whole blood was 80%). After a 3-hour incubation with gentle shaking at 37° C. in a 5% CO2 atmosphere, the assay plates were centrifuged at 1000×g for 10 min. at 4° C. and plasma was drawn off and frozen at −80° C. Plasma samples were analyzed for TNF-alpha, IL-10, and IL-12 by ELISA (Genzyme Corp., Cambridge, Mass.). Each assay point was tested in triplicate.
This stimulatory activity can be compared to that of 10 ng/ml endotoxin (or LPS) present in similar incubations in the same assay.
In general terms: ELISA stands for enzyme-linked immunosorbent assay.

A further test concerns EGFRvIII peptide. The test is described as follows: EGFRvIII peptide-specific antibody titers after immunization (ELISA). The format is in vivo, C57/BL6J mice. The conditions noted are these: s.c. with 25 μg peptide-KLH, 804057 3 μg, GM-CSF 5 μg. The text has this:
To determine whether an adjuvant can enhance the effect of an oncology antigen (i.e., an antigen that can be used to vaccinate a subject individual against a cancer), C57/BL6J mice were immunized subcutaneously with a tumor-associated peptide, LEEKKGNYVVTDHC (SEQ ID NO:2) (derived from a mutant form of EGFR, […]) conjugated to the protein carrier keyhole limpet hemocyanin (KLH), with or without Compound 804057 or murine GM-CSF, a cytokine used in cancer vaccine trials to boost immune response. Compound 804057 was dosed at 3 μg, GM-CSF at 5 μg and the peptide-KLH conjugate at 25 μg per dose. Mice were immunized three times at intervals of three weeks. Serum was prepared from mice two weeks after each immunization and tested for […] peptide-specific antibodies using ELISA on plates coated with EGFRvIII peptide conjugated to bovine serum albumin. The results in Table 3 are presented as titers from individual animals. The titer is defined as the last serum dilution at which a signal at 0.25 OD units above background was observed.

Where [1] appears, read: titer = last serum dilution 0.25 OD above background.

Several values for one entry are separate records, joined by “and”; a condition that tells them apart may be missing. Identical values can stand only once. Like-named read-outs stand apart in the source and are kept apart here.

For the molecule `CCCCCC/C=C\CCCC(=O)O[C@H](CCCCCCC)CCOCC(COP(=O)([O-])OCCNC(=O)CCCCCCCCC(=O)NCCOP(=O)([O-])OCC(COCC[C@@H](CCCCCCC)OC(=O)CCC/C=C\CCCCCC)NC(=O)CC(=O)CCCCCCCCCCC)NC(=O)CC(=O)CCCCCCCCCCC.[Na+].[Na+]` (stereo partly drawn) [ER 111231], in the test with normal mouse splenocytes, the “IL-10 release from splenocytes” value is given as “stimulated” and the “interferon-gamma release from splenocytes” value (shortened to “interferon-gamma release”) is on record as “stimulated”.

As to `CCCCCC/C=C\CCCC(=O)O[C@H](CCCCCCC)CCOCC(COP(=O)([O-])OCCNC(=O)NCCOP(=O)([O-])OCC(COCC[C@@H](CCCCCCC)OC(=O)CCC/C=C\CCCCCC)NC(=O)CC(=O)CCCCCCCCCCC)NC(=O)CC(=O)CCCCCCCCCCC.[Na+].[Na+]` (stereo partly drawn) [ER 111232], in the test with normal mouse splenocytes, the “IL-10 release from splenocytes” value is reported as “stimulated” and the “interferon-gamma release” value is recorded as “stimulated”. Further, the “stimulation of alkaline phosphatase expression from TNF promoter reporter (TNF-PLAP)” value with THP-1 cells is listed as “stimulation of alkaline phosphatase expression”.

In the case of `CCCCCCCCCCCC(=O)CC(=O)NC(COCC[C@@H](CCCCCCC)OC(=O)CCCCCCCCCCC)COP(=O)([O-])OCCNC(=O)NCCOP(=O)([O-])OCC(COCC[C@@H](CCCCCCC)OC(=O)CCCCCCCCCCC)NC(=O)CC(=O)CCCCCCCCCCC.[Na+].[Na+]` (stereo partly drawn) [ER 112066], in the test on normal mouse splenocytes, the “IL-10 release from splenocytes” value is listed as “stimulation of IL-10 release” and the “interferon-gamma release” value is reported as “stimulation of interferon-gamma release”. Besides, the “stimulation of alkaline phosphatase expression from TNF promoter reporter (TNF-PLAP)” value in the test with THP-1 cells was “stimulation of alkaline phosphatase expression”.

With `CCCCCC/C=C\CCCC(=O)O[C@H](CCCCCCC)CCOCC(COP(=O)([O-])OCCNC(=O)CC(=O)NCCOP(=O)([O-])OCC(COCC[C@@H](CCCCCCC)OC(=O)CCC/C=C\CCCCCC)NC(=O)CC(=O)CCCCCCCCCCC)NC(=O)CC(=O)CCCCCCCCCCC.[Na+].[Na+]` (stereo partly drawn) [ER 113651], in the test on normal mouse splenocytes, the “IL-10 release from splenocytes” value was “stimulated” and the “interferon-gamma release” value is “stimulated”.

For `CCCCCC/C=C\CCCC(=O)O[C@H](CCCCCCC)CCOCC(COP(=O)([O-])OCCNC(=O)CCCCCCCCC(=O)NCCOP(=O)([O-])OCC(COCC[C@@H](CCCCCCC)OC(=O)CCC/C=C\CCCCCC)NC(=O)CC(=O)CCCCCCCCCCC)NC(=O)CC(=O)CCCCCCCCCCC.[Na+].[Na+]` (stereo partly drawn) [compound 111231], the “THP-1 cell Stimulation (% of compound 100 at 10 μM) +serum” value in the test on THP-1 cells is 17 % of compound 100 at 10 μM. The EC50 with Human Whole Blood was determined as 290 nM.

With `CCCCCC/C=C\CCCC(=O)O[C@H](CCCCCCC)CCOCC(COP(=O)([O-])OCCNC(=O)NCCOP(=O)([O-])OCC(COCC[C@@H](CCCCCCC)OC(=O)CCC/C=C\CCCCCC)NC(=O)CC(=O)CCCCCCCCCCC)NC(=O)CC(=O)CCCCCCCCCCC.[Na+].[Na+]` (stereo partly drawn) [compound 111232], in the test with THP-1 cells, the “THP-1 cell Stimulation (% of compound 100 at 10 μM) +serum” value was 155 % of compound 100 at 10 μM and the “THP-1 cell Stimulation (% of compound 100 at 10 μM) −serum” value is recorded as 225 % of compound 100 at 10 μM. The “TNF-alpha release in whole blood at 10 μM compound (% of 10 ng/ml LPS response)” value (from here on “TNF-alpha release … (% of 10 ng/ml LPS response)”) with Human Whole Blood is reported as 158 % of LPS.

`CCCCCC/C=C\CCCC(=O)O[C@H](CCCCCCC)CCOCC(COP(=O)([O-])OCCNC(=O)CCC(=O)NCCOP(=O)([O-])OCC(COCC[C@@H](CCCCCCC)OC(=O)CCC/C=C\CCCCCC)NC(=O)CC(=O)CCCCCCCCCCC)NC(=O)CC(=O)CCCCCCCCCCC.[Na+].[Na+]` (stereo partly drawn) [compound 111233]: in the test with THP-1 cells, the “THP-1 cell Stimulation (% of compound 100 at 10 μM) +serum” value was 141 % of compound 100 at 10 μM.

Take `CCCCCCCCCCCC(=O)CC(=O)NC(COCC[C@@H](CCCCCCC)OC(=O)CCCCCCCCCCC)COP(=O)([O-])OCCNC(=O)NCCOP(=O)([O-])OCC(COCC[C@@H](CCCCCCC)OC(=O)CCCCCCCCCCC)NC(=O)CC(=O)CCCCCCCCCCC.[Na+].[Na+]` (stereo partly drawn) [compound 112066]: the “THP-1 cell Stimulation (% of compound 100 at 10 μM) +serum” value in the test with THP-1 cells was 330 % of compound 100 at 10 μM. Further, in the test with Human Whole Blood, the “TNF-alpha release … (% of 10 ng/ml LPS response)” value is on record as 162 % of LPS and the EC50 stood at 40 nM.

On to `CCCCCC/C=C\CCCC(=O)O[C@H](CCCCCCC)CCOCC(COP(=O)([O-])OCCNC(=O)CC(=O)NCCOP(=O)([O-])OCC(COCC[C@@H](CCCCCCC)OC(=O)CCC/C=C\CCCCCC)NC(=O)CC(=O)CCCCCCCCCCC)NC(=O)CC(=O)CCCCCCCCCCC.[Na+].[Na+]` (stereo partly drawn) [compound 113651], for which, in the test with THP-1 cells, the “THP-1 cell Stimulation (% of compound 100 at 10 μM) +serum” value was 215 % of compound 100 at 10 μM and the “THP-1 cell Stimulation (% of compound 100 at 10 μM) −serum” value was 254 % of compound 100 at 10 μM. Besides, in the test with Human Whole Blood, the “TNF-alpha release … (% of 10 ng/ml LPS response)” value is recorded as 133 ± 4.4 (n = 4) % of LPS and the EC50 worked out at 700 nM.

Turning to `CCCCCCCCCCCCCCN(C(C)=O)[C@H](COCC[C@@H](CCCCCCC)OC(=O)CCCCCCCCCCC)COP(=O)(O)OCCNC(=O)NCCOP(=O)(O)OC[C@@H](COCC[C@@H](CCCCCCC)OC(=O)CCCCCCCCCCC)N(CCCCCCCCCCCCCC)C(C)=O` [compound 804339], in the test with Human Whole Blood, the EC50 came out at 1060 nM.

Turning to `CCCCCCCCCCCCCC(=O)N[C@H](COCC[C@@H](CCCCCCC)OCCCCCCCCCCCC)COP(=O)(O)OCCNC(=O)NCCOP(=O)(O)OC[C@@H](COCC[C@@H](CCCCCCC)OCCCCCCCCCCCC)NC(=O)CCCCCCCCCCCCC` [compound 804372], in the test on Human Whole Blood, the EC50 worked out at 400 nM.

Turning to `CCCCCCCCCCCCCC(=O)N[C@@H](CC[N+](C)(C)CCCNC(=O)NCCC[N+](C)(C)CC[C@@H](COC(=O)C[C@@H](CCCCCCC)OC(=O)CCCCCCCCCCC)NC(=O)CCCCCCCCCCCCC)COC(=O)C[C@@H](CCCCCCC)OC(=O)CCCCCCCCCCC` [compound 804947], in the test with Human Whole Blood (Homo sapiens), the EC50 is greater than 10000 nM.

B1: GM-CSF: murine GM-CSF, a cytokine used in cancer vaccine trials to boost immune response (protein, UniProt P01587 18-141, looked up)
Granulocyte-macrophage …: APTRSPITVTRPWKHVEAIKEALNLLDDMPVTLNEEVEVVSNEFSFKKLTCVQTRLKIFEQGLRGNFTKLKGALNMTASYYQTYCPPTPETDCETQVTTYADFIDSLKTFLTDIPFECKKPGQK
For the molecule B1, in the test on EGFRvIII peptide, the “Geometric mean titer, IgG1” value amounted to 24000 and the “Geometric mean titer, IgG2a” value worked out at 3568. Also, in the test with EGFRvIII peptide (setting [1]), the “Antibody titers to EGFRvIII peptide, IgG1, individual animals” value is 12000 (3×) and 24000 (2×) and 48000 (3×); the “Antibody titers to EGFRvIII peptide, IgG2a, individual animals” value was 3000 (2×) and 6000 (3×) and 24000 and 750 (2×).

For the origin of these results see US7915238B2, “Immunomodulatory compounds and methods of use thereof” (Eisai R & D Management Co., Ltd., priority 1999, dated 2011).
